According to patent publication US9096605B2, “Pyrazolopyrimidine derivatives as PI3 kinase inhibitors” (GlaxoSmithKline LLC, priority 2011, dated 2015):
Where a name gives a salt, the structure may show the parent alone.

Columns and labels:
PI3K-beta = biological target: T1, PI3K-beta (Homo sapiens, UniProt P42338); assay: HTRF in vitro profiling assay for PI3K inhibition (beta isoform); assay type: biochemical; settings: PI3K-beta enzyme pIC50 range, 200 pM enzyme, 100 uM ATP, 10 uM PIP2, 150 mM NaCl, corrected pIC50, read-out: PI3K-b Enz Activity
T1 construct: made in house
T1 sequence (P42338 whole entry, canonical isoform): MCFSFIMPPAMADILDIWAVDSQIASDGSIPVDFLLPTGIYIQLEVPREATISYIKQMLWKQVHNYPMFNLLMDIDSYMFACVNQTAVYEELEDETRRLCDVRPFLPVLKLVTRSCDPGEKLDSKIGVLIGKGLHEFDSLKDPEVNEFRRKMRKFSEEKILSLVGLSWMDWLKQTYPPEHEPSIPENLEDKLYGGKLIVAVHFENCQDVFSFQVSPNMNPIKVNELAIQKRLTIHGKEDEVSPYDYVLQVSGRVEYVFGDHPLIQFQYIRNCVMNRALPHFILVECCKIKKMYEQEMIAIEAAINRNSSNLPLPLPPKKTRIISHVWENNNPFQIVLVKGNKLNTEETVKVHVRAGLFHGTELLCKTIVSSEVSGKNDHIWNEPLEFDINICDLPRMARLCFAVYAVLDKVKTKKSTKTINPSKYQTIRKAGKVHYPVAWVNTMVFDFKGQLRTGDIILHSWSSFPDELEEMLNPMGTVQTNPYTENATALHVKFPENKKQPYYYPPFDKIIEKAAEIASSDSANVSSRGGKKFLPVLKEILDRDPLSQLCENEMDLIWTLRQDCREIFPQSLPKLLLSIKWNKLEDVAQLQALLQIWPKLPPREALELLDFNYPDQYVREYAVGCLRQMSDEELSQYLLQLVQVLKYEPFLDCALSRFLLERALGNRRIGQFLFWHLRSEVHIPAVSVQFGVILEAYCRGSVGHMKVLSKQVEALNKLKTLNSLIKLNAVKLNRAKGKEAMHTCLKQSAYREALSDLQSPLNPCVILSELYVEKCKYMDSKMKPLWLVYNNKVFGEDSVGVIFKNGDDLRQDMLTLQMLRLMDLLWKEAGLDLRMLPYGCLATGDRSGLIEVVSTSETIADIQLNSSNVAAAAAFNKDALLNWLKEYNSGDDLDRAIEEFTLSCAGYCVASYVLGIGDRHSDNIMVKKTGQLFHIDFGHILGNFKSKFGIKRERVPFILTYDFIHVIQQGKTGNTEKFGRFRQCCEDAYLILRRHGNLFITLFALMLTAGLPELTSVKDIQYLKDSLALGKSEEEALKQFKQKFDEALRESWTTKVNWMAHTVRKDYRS
T1 sequence (P27986 whole entry partner, canonical isoform): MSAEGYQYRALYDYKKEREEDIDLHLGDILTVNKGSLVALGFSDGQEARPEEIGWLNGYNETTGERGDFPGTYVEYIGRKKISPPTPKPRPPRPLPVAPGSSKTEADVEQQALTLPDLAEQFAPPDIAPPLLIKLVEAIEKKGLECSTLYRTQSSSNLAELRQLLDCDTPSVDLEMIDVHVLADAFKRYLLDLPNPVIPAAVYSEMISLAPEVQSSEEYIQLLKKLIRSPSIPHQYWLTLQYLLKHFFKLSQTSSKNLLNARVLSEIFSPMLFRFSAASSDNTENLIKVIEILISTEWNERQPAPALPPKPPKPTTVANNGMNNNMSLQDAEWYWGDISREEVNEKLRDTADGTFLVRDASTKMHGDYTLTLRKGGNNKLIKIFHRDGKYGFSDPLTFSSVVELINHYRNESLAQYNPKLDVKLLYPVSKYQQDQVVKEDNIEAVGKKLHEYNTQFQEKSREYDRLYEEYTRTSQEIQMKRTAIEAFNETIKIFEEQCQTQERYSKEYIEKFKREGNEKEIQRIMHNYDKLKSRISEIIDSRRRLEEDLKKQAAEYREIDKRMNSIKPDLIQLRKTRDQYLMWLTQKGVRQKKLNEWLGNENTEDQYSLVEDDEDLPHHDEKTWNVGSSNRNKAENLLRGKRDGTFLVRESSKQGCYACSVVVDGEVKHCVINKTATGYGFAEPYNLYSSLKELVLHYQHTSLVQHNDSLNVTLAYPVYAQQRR
Text: HTRF In Vitro Profiling Assays for PI3K Inhibition
The PI3-Kinase profiling assays were developed to measure the compound-dependent inhibition of the alpha, beta, delta, and gamma isoforms of PI3K in an in vitro catalytic assay. This assay was developed and optimized from a kit produced by Upstate (Millipore catalog #33-017). Briefly, this procedure utilizes a pre-formed HTRF (Homogeneous Time-Resolved Fluorescence energy transfer) complex between four binding partners: 1) biotinylated PIP3, 2) GST tagged pleckstrin homology (PH) domain, 3) Europium labeled anti-GST monoclonal antibody, and 4) Streptavidin-Allophycocyanin (APC). The native PIP3 produced by PI 3-Kinase activity displaces biotin-PIP3 from the PH domain, resulting in the dissociation of the HTRF complex and a decrease in the fluorescence signal. The format of this assay is the same for all 4 isoforms of PI3K; the differences lie in the concentration of enzyme used to achieve the most robust signal. The alpha and delta assays are run at 400 pM enzyme; the beta assay is at 200 pM enzyme and the gamma assay is run at 1 nM enzyme. In addition, the alpha, beta and delta assays are run with 150 mM NaCl while the gamma assay is run in the absence of NaCl. The ATP concentration is 100 uM in the alpha, beta, and delta assays and 15 uM ATP in the gamma assay. All reactions are run at 10 uM PIP2
Compounds are serially diluted (3-fold in 100% DMSO) across a 384-well polypropylene mother plate from column 1 to column 12 and column 13 to column 24, to yield 11 concentrations for each test compound. Columns 6 and 18 contain only DMSO. Once titrations are made, […] is transferred to a 384-well low-volume assay plate (Greiner 784076). This assay plate contains three pharmacological controls (known PI3K inhibitors) and 3 assay controls: (1) Enzyme without inhibitor; (2) Buffer minus enzyme, and (3) Buffer minus enzyme plus native PIP3. DMSO is stamped into all wells of columns 6 and 18. PIP3 is added at 40 μM in 1× Reaction buffer (1 μL of 200 μM PIP3) to alternating rows of column 18 (wells 18 B, D, F, H, J, L, N, P). The no-enzyme control reactions are run in wells 18 A, C, E, G, I, K, M, O (0.1 μL of 100% DMSO).
The PI3-Kinase profiling assay was optimized using the HTRF kit provided by Upstate (Millipore). The assay kit contains seven reagents: 1) 4× Reaction Buffer; 2) native PIP2 (substrate); 3) Stop A (EDTA); 4) Stop B (Biotin-PIP3); 5) Detection Mix A (Streptavidin-APC); 6) Detection Mix B (Eu-labeled Anti-GST plus GST-tagged PH-domain); 7) Detection Mix C (KF). In addition, the following items were obtained or purchased: PI3Kinase (prepared by GSK BR&AD), dithiothreitol (Sigma, D-5545), Adenosine-5′-triphosphate (ATP, Teknova cat. # A0220), native PIP3 (1,2-dioctanoyl-sn-glycero-3-[phosphoinositil-3,4,5-triphosphate]tetraammonium salt (Avanti polar lipids, 850186P), DMSO (Sigma, 472301).
PI3Kinase Reaction Buffer is prepared by diluting the stock 1:4 with de-ionized water. Freshly prepared DTT is added at a final concentration of 5 mM on the day of use. Enzyme addition and compound pre-incubation are initiated by the addition of 2.5 μL of PI3K (at twice its final concentration) in 1× reaction buffer to all wells using a Multidrop Combi. Plates are incubated at room temperature for 15 minutes. Reactions are initiated by addition of 2.5 μL of 2× substrate solution (PIP2 and ATP in 1× reaction buffer) using a Multidrop Combi. Plates are incubated at room temperature for one hour. Reactions are quenched by the addition of 2.5 μL of stop solution (Stop A and Stop B pre-mixed at a ratio of 5:1, respectively) to all wells using the Multidrop Combi. […]

[1] = system: pAKT(Ser473) in MDA-MB-468 cells; assay: pAKT(Ser473) assay in MDA-MB-468 cells; assay type: cell-based; settings: Homo sapiens, 0.5 h, compound treatment 30 minutes, MSD ELISA phospho AKT(Ser473), given as ranges, read-out: Cell Activity—pAKT IC50 in MDA-MB-468
Description: pAKT(Ser473) Assay in MDA-MB-468 Cells
MDA-MB-468 cells were plated in 384-well flat clear bottom tissue culture plates (Corning #3701) at a density of 5000 cells per 0.057 cm2 in 48 ul of RPMI 1640 media supplemented with 10% fetal bovine serum (FBS). Cells were seeded with a Wellmate liquid handler (Matrix). Columns 1 through 23 were plated with cells and column 24 contained media alone. Cells were incubated at 37° C. with 5% CO2 for approximately 16-20 hours. Duplicate compound plates were prepared in 384-well polypropylene V-Bottom plates (Greiner #781280).
Compound titrations were made across the columns (A1-A20). 20 ul of compound was added to the first column and diluted into a 20 point curve with dimethylsulfoxide (DMSO, Thermo #TS2064) using a 2-fold dilution factor with a liquid handling robot (Hamilton). Columns 22 through 24 contained DMSO alone. Titrations were diluted 682-fold for compound treatment with 4 ul of compound added to 105 ul of RPMI media. Two ul of the diluted compound was added to the cell plates containing 48 ul of media using a multimek robot (Beckman Coulter). Final DMSO concentrations were 0.15%. Cells were treated with compound for 30 minutes at 37° C. with 5% CO2.
Following incubation, media was aspirated from dosed cell plates using an ELx405 plate washer (Bio-Tek) and 25 ul of 4° C. Meso Scale Discovery (MSD) lysis buffer with the addition of protease and phosphatase inhibitors (supplied in MSD kit #N31CB-1) was added to each well using a multidrop combi (Thermo). Precoated 4-spot per well MSD ELISA plates coated with total and phospho AKT(Ser473) antibody and BSA (supplied in kit) were blocked for 1 hour at room temperature with 35 ul per well of 1× MSD wash buffer+3% BSA (supplied in kit).
Blocked plates were washed 4 times with 100 ul per well of 1× Tris wash buffer (supplied in MSD kit) using an Elx405 plate washer (Bio-Tek). To each well, 20 ul of cell lysate was added using a multimek robot (Beckman Coulter) and the plate incubated at 4° C. overnight (˜12-24 hours). Following incubation, the ELISA plates were washed 4 times (100 ul/well) with 1× Tris wash buffer. Twenty microliters per well of 1× detection antibody (supplied in MSD kit) was added using a multidrop combi (Thermo), followed by a 2 hour incubation at room temperature. Detection antibody was aspirated and the plates washed 4 times (100 ul/well) with 1× Tris wash buffer. Read Buffer (supplied in MSD kit) was added at 1× (35 ul/well) at room temperature using a multidrop (Thermo). Relative luminescence units (RLU) were determined using a SECTOR™ Imager 6000 with MSD Workbench Software.
Concentration Response Curves for pAKT(Ser473):
For analysis of the pAKT(Ser473) concentration response curves, the data was normalized using Phospho AKT values divided by the sum of corresponding Total AKT and Phospho AKT values. The normalized values are plotted as the percent of the DMSO-treated control values on the corresponding plate. To determine IC50 values, the data is fit to a 4 parameter nonlinear sigmoidal dose response (variable slope) using GraphPad Prism version 4 for Windows, (GraphPad Software, San Diego Calif. USA). Criteria for curve fitting and IC50 determination include that the IC50 values from duplicate runs must be within 2 to 3-fold of each other, the Y min must be less than or equal to 30% of the DMSO-treated control and the Y max must range between 80-120%. Any data point equal to or greater than 40% of the curve was not utilized.

Structure (SMILES) | IC50 (PI3K-beta) [µM] | IC50 [1] [µM]
Nc1nn2c(O)cc(N3CCOCC3)nc2c1Cc1cccc2ccccc12 [Example 23, 2-amino-5-morpholino-3-(naphthalen-1-ylmethyl)pyrazolo[1,5-a]pyrimidin-7-ol] | 0.000126 to 0.001 | < 1
Cc1c(Cc2c(N)nn3c(O)cc(N4CCOCC4)nc23)cccc1C(F)(F)F [Example 24, 2-amino-3-(2-methyl-3-(trifluoromethyl)benzyl)-5-morpholinopyrazolo[1,5-a]pyrimidin-7-ol] | 0.00126 to 0.01 | < 1
Cc1c(Cc2c(N)nn3c(O)cc(C4CCOCC4)nc23)cccc1C(F)(F)F [Example 25, 2-amino-3-(2-methyl-3-(trifluoromethyl)benzyl)-5-(tetrahydro-2H-pyran-4-yl)pyrazolo[1,5-a]pyrimidin-7-ol] | 0.00126 to 0.01 | < 1
Nc1nn2c(O)cc(C3CCOCC3)nc2c1Cc1cccc(Cl)c1Cl [Example 26, 2-amino-3-(2,3-dichlorobenzyl)-5-(tetrahydro-2H-pyran-4-yl)pyrazolo[1,5-a]pyrimidin-7-ol hydrochloride] | 0.00126 to 0.01 | 1 to 5
Cc1nn2c(N)cc(N3CCOCC3)nc2c1Cc1cccc2ccccc12 [Example 27, 2-methyl-5-morpholino-3-(naphthalen-1-ylmethyl)pyrazolo[1,5-a]pyrimidin-7-amine] | 0.0126 to 0.1 | < 1
Cc1ccccc1Cc1c(C)nn2c(O)cc(-c3ccncc3)nc12 [Example 29, 2-methyl-3-(2-methylbenzyl)-5-(pyridin-4-yl)pyrazolo[1,5-a]pyrimidin-7-ol] | 0.00126 to 0.01 | 1 to 5
Cc1nn2c(O)cc(-c3ccncc3)nc2c1Cc1cccc(Cl)c1Cl [Example 30, 3-(2,3-dichlorobenzyl)-2-methyl-5-(pyridin-4-yl)pyrazolo[1,5-a]pyrimidin-7-ol] | 0.000126 to 0.001 | 6 to 10
CCc1nn2c(O)cc(-c3ccncc3)nc2c1Cc1cccc(Cl)c1Cl [Example 31, 3-(2,3-dichlorobenzyl)-2-ethyl-5-(pyridin-4-yl)pyrazolo[1,5-a]pyrimidin-7-ol] | 0.000126 to 0.001 | > 20
Oc1cc(-c2ccncc2)nc2c(Cc3cccc(Cl)c3Cl)c(C(F)(F)F)nn12 [Example 32, 3-(2,3-dichlorobenzyl)-5-(pyridin-4-yl)-2-(trifluoromethyl)pyrazolo[1,5-a]pyrimidin-7-ol] | 0.00126 to 0.01 | 11 to 20
Cc1c(Cc2cccc(Cl)c2Cl)c2nc(-c3ccncc3)cc(=O)n2n1C [Example 33, 3-(2,3-dichlorobenzyl)-1,2-dimethyl-5-(pyridin-4-yl)pyrazolo[1,5-a]pyrimidin-7(1H)-one] | 0.126 to 1.26 | > 20
COc1nn2c(O)cc(-c3ccncc3)nc2c1Cc1cccc(Cl)c1Cl [Example 35, 3-(2,3-dichlorobenzyl)-2-methoxy-5-(pyridin-4-yl)pyrazolo[1,5-a]pyrimidin-7-ol] | 0.00126 to 0.01 | 11 to 20
Cc1nn2c(C(=O)O)cc(N3CCOCC3)nc2c1Cc1cccc(C(F)(F)F)c1C [Example 36, 2-methyl-3-(2-methyl-3-(trifluoromethyl)benzyl)-5-morpholinopyrazolo[1,5-a]pyrimidine-7-carboxylic acid] | 0.00126 to 0.01 | 1 to 5
Cc1nn2c(C(=O)O)cc(N3CCOCC3)nc2c1Cc1cccc2ccccc12 [Example 37, 2-methyl-5-morpholino-3-(naphthalen-1-ylmethyl)pyrazolo[1,5-a]pyrimidine-7-carboxylic acid] | 0.0126 to 0.1 | 1 to 5
Cc1nn2c(C(N)=O)cc(N3CCOCC3)nc2c1Cc1cccc2ccccc12 [Example 38, 2-methyl-5-morpholino-3-(naphthalen-1-ylmethyl)pyrazolo[1,5-a]pyrimidine-7-carboxamide] | 0.0126 to 0.1 | < 1
Cc1nn2c(C(N)=O)cc(N3CCOCC3)nc2c1Cc1cccc(C(F)(F)F)c1C [Example 39, 2-methyl-3-(2-methyl-3-(trifluoromethyl)benzyl)-5-morpholinopyrazolo[1,5-a]pyrimidine-7-carboxamide] | 0.0126 to 0.1 | > 20
Cc1nn2c(-c3nc[nH]n3)cc(N3CCOCC3)nc2c1Cc1cccc2ccccc12 [Example 40, 4-(2-methyl-3-(naphthalen-1-ylmethyl)-7-(1H-1,2,4-triazol-3-yl)pyrazolo[1,5-a]pyrimidin-5-yl)morpholine] | 0.00126 to 0.01 | < 1
Cc1nn2c(-c3nc[nH]n3)cc(N3CCOCC3)nc2c1Cc1cccc(C(F)(F)F)c1C [Example 41, 4-(2-methyl-3-(2-methyl-3-(trifluoromethyl)benzyl)-7-(1H-1,2,4-triazol-3-yl)pyrazolo[1,5-a]pyrimidin-5-yl)morpholine] | 0.00126 to 0.01 | 6 to 10
